Laboratory results published in patent US4990337A (priority 1988, dated 1991).

Test: Test Example 2: emulsifiability of intermediate molecular weight fatty acid glycerides in water, test tube shaking
Format: physicochemical
Settings: 1 ml glyceride and 9 ml water; for stability of the emulsion (separation between oil and water): on standing; for Emulsifiability: test tube shaken
Protocol: 1 ml of an intermediate molecular weight fatty acid glyceride and 9 ml of water were placed in a test tube, and the test tube was shaken lightly to examine the emulsifiability of the intermediate molecular weight fatty acid glyceride.
The intermediate molecular weight fatty acid glycerides examined in this Example were caprylic acid mono-, di- and tri- glycerides and caproic acid diglyceride.

In the case of `CCCCCCCC(=O)OCC(COC(=O)CCCCCCC)OC(=O)CCCCCCC` [Caprylic acid triglyceride], the “stability of the emulsion (separation between oil and water)” value is reported as “tended to separate into oil and water” and the Emulsifiability is reported as “emulsified only after vigorous shaking by hand”.
In the case of Caproic acid diglyceride, the Emulsifiability is reported as “intermediate emulsifiability”.
In the case of Caprylic acid monoglyceride, the “stability of the emulsion (separation between oil and water)” value is reported as “the emulsion was very stable” and the Emulsifiability is reported as “emulsified in a manner very close to self-emulsification”.
In the case of caprylic acid diglyceride, the Emulsifiability is reported as “intermediate emulsifiability”.
